Laboratory results as given in publication PMC10326263 (Acta Pharmaceutica Sinica. B, 2023).

Legend:
[1] = system: HIV-1 mutant strain E138K; test: microbe, parasite or virus in culture; format: cell-based; settings: Human immunodeficiency virus 1, MT4, read-out: EC50 E138K
[2] = system: HIV-1 mutant strain L100I; test: microbe, parasite or virus in culture; format: cell-based; settings: Human immunodeficiency virus 1, MT4, read-out: EC50 L100I
[3] = Cytotoxicity in mock-infected MT-4 cells, MTT method; format: cell-based; settings: human, mock-infected MT-4 cells, CC50, mock-infected MT-4 cells
[4] = system: HIV-1 mutant strain RES056 (K103N + Y181C); test: microbe, parasite or virus in culture; format: cell-based; settings: Human immunodeficiency virus 1, MT4, read-out: EC50 RES056
[5] = system: HIV-1 mutant strain Y188L; test: microbe, parasite or virus in culture; format: cell-based; settings: Human immunodeficiency virus 1, MT4, read-out: EC50 Y188L
HIV-1 WT strain (IIIB) = test: Anti-HIV activity against WT HIV-1; settings: WT HIV-1 IIIB
[6] = system: HIV-1 mutant strain K103N; test: microbe, parasite or virus in culture; format: cell-based; settings: Human immunodeficiency virus 1, MT4, read-out: EC50 K103N
[7] = system: HIV-1 mutant strain F227L + V106A; test: microbe, parasite or virus in culture; format: cell-based; settings: Human immunodeficiency virus 1, MT4, read-out: EC50 F227L + V106A
[8] = system: HIV-1 mutant strain Y181C; test: microbe, parasite or virus in culture; format: cell-based; settings: Human immunodeficiency virus 1, MT4, read-out: EC50 Y181C

Compound | EC50 [1] | EC50 [2] | CC50 at 5 days [3] | EC50 [4] | EC50 [5] | SI IIIB (CC50/EC50 ratio) (HIV-1 WT strain (IIIB)) | EC50 [6] | EC50 [7] | EC50 [8]
Cc1cc(C#N)cc(C)c1Oc1nc(Nc2ccc(C#N)cc2)nc(N)c1Br [ETR, Etravirine, reference compound] | 37 ± 30 nM | 32 ± 28 nM | > 4.59 µM | 0.15 ± 0.12 µM | 0.083 ± 0.053 µM | >900 | 15 ± 12 nM | 88 ± 76 nM | 58 ± 41 nM
Cc1cc(C)cc(S(=O)(=O)c2c(C(=O)NCCCCCNS(=O)(=O)c3ccc(F)cc3)[nH]c3ccc(Cl)cc23)c1 [R4L5, 5-Chloro-3-((3,5-dimethylphenyl)sulfonyl)-N-(5-((4-fluorophenyl)sulfonamido)pentyl)-1H-indole-2-carboxamide] | 73 ± 20 nM | 74 ± 10 nM | 144 ± 13.2 µM | > 31.2 µM | 1.67 ± 0.35 µM | 7527 | 510 ± 210 nM | 380 ± 17 nM | 180 ± 17 nM
Cc1cc(C)cc(S(=O)(=O)c2c(C(=O)NCCCCCNS(=O)(=O)c3cccs3)[nH]c3ccc(Cl)cc23)c1 [R8L5, 5-Chloro-3-((3,5-dimethylphenyl)sulfonyl)-N-(5-(thiophene-2-sulfonamido)pentyl)-1H-indole-2-carboxamide] | 200 ± 51 nM | 170 ± 17 nM | 35.4 ± 1.05 µM | > 43.3 µM | 2.71 ± 0.13 µM | 526 | 1230 ± 220 nM | 1260 ± 340 nM | 730 ± 340 nM
COc1ccc(S(=O)(=O)NCCNC(=O)c2[nH]c3ccc(Cl)cc3c2S(=O)(=O)c2cc(C)cc(C)c2)cc1 [R2L2, 5-Chloro-3-((3,5-dimethylphenyl)sulfonyl)-N-(2-((4-methoxyphenyl)sulfonamido)ethyl)-1H-indole-2-carboxamide] | 1110 ± 170 nM | 660 ± 230 nM | 106 ± 23 µM | > 106 µM | > 106 µM | 1233 | 900 ± 380 nM | 1580 ± 450 nM | 850 ± 35 nM
Cc1cc(C)cc(S(=O)(=O)c2c(C(=O)NCCCCNS(=O)(=O)c3ccc(Cl)cc3)[nH]c3ccc(Cl)cc23)c1 [R7L4, 5-Chloro-3-((3,5-dimethylphenyl)sulfonyl)-N-(4-((4-chlorophenyl)sulfonamido)butyl)-1H-indole-2-carboxamide] | 51 ± 18 nM | 74 ± 21 nM | 89.3 ± 17.8 µM | > 89.3 µM | 1.53 ± 0.72 µM | 10,389 | 130 ± 48 nM | 260 nM | 180 ± 16 nM
Cc1cc(C)cc(S(=O)(=O)c2c(C(=O)NCCNS(=O)(=O)c3cccs3)[nH]c3ccc(Cl)cc23)c1 [R8L2, 5-Chloro-3-((3,5-dimethylphenyl)sulfonyl)-N-(2-(thiophene-2-sulfonamido)ethyl)-1H-indole-2-carboxamide] | 1200 ± 18 nM | 800 ± 94 nM | 161 ± 50.3 µM | 4.63 ± 1.54 µM | 6.24 ± 0.65 µM | 1558 | 1180 ± 91 nM | 1810 ± 180 nM | 1000 ± 91 nM
Cc1cc(C)cc(S(=O)(=O)c2c(C(=O)NCCCCNS(=O)(=O)c3ccc(C#N)cc3)[nH]c3ccc(Cl)cc23)c1 [R5L4, 5-Chloro-3-((3,5-dimethylphenyl)sulfonyl)-N-(4-((4-cyanophenyl)sulfonamido)butyl)-1H-indole-2-carboxamide] | 32 ± 18 nM | 25 ± 2 nM | 4.58 ± 3.53 µM | > 4.58 µM | 0.15 ± 0.01 µM | 279 | 67 ± 5 nM | 82 ± 35 nM | 54 ± 2 nM
Cc1cc(C)cc(S(=O)(=O)c2c(C(=O)NCCCNS(=O)(=O)c3ccccc3)[nH]c3ccc(Cl)cc23)c1 [R9L3, 5-Chloro-3-((3,5-dimethylphenyl)sulfonyl)-N-(3-(phenylsulfonamido)propyl)-1H-indole-2-carboxamide] | 55 ± 18 nM | 180 ± 54 nM | > 224 µM | 4.76 ± 0.8 µM | 3.08 ± 0.25 µM | >8047 | 320 ± 72 nM | 800 ± 250 nM | 700 ± 270 nM
Cc1ccnc2c1NC(=O)c1cccnc1N2C1CC1 [NVP, Nevirapine, reference compound] | 95 ± 31 nM | 1260 ± 600 nM | > 15 µM | > 9.52 µM | > 9.52 µM | >114 | 5330 ± 1070 nM | > 9520 nM | > 9520 nM
Cc1ccc(S(=O)(=O)NCCNC(=O)c2[nH]c3ccc(Cl)cc3c2S(=O)(=O)c2cc(C)cc(C)c2)cc1 [R1L2, 5-Chloro-3-((3,5-dimethylphenyl)sulfonyl)-N-(2-((4-methylphenyl)sulfonamido)ethyl)-1H-indole-2-carboxamide] | 860 ± 360 nM | 680 ± 390 nM | 168 ± 17.2 µM | 3.38 ± 0.89 µM | 6.42 ± 1.4 µM | 3787 | 410 ± 110 nM | 1750 ± 200 nM | 610 ± 130 nM
Cc1cc(C)cc(S(=O)(=O)c2c(C(=O)NCCCNS(=O)(=O)c3ccc(C#N)cc3)[nH]c3ccc(Cl)cc23)c1 [R5L3, 5-Chloro-3-((3,5-dimethylphenyl)sulfonyl)-N-(3-((4-cyanophenyl)sulfonamido)propyl)-1H-indole-2-carboxamide] | 270 ± 17 nM | 330 ± 34 nM | 22.6 ± 0.89 µM | 4.09 µM | 3.34 ± 0.017 µM | 732 | 920 ± 410 nM | 1220 ± 51 nM | 980 ± 51 nM
Cc1cc(C)cc(S(=O)(=O)c2c(C(=O)NCCCNS(=O)(=O)c3ccc(Br)cc3)[nH]c3ccc(Cl)cc23)c1 [R6L3, 5-Chloro-3-((3,5-dimethylphenyl)sulfonyl)-N-(3-((4-bromophenyl)sulfonamido)propyl)-1H-indole-2-carboxamide] | 470 ± 200 nM | 780 ± 140 nM | 88.1 ± 18.1 µM | > 88.1 µM | 5.26 ± 1.04 µM | 645 | 1040 ± 190 nM | 1480 ± 110 nM | 1320 ± 190 nM
Cc1cc(C)cc(S(=O)(=O)c2c(C(=O)NCCCNS(=O)(=O)c3ccccc3F)[nH]c3ccc(Cl)cc23)c1 [R11L3, 5-Chloro-3-((3,5-dimethylphenyl)sulfonyl)-N-(3-((2-fluorophenyl)sulfonamido)propyl)-1H-indole-2-carboxamide] | 68 ± 2 nM | 160 ± 78 nM | 192 ± 4.99 µM | 12.8 ± 10.1 µM | 7.12 ± 0.76 µM | 12,570 | 280 ± 35 nM | 880 ± 520 nM | 610 ± 140 nM
Cc1cc(C)cc(S(=O)(=O)c2c(C(=O)NCCCNS(=O)(=O)c3cccnc3)[nH]c3ccc(Cl)cc23)c1 [R10L3, 5-Chloro-3-((3,5-dimethylphenyl)sulfonyl)-N-(3-(pyridine-3-sulfonamido)propyl)-1H-indole-2-carboxamide] | 43 ± 5 nM | 100 ± 32 nM | 55.1 ± 8.07 µM | 7.77 ± 2.32 µM | 2.32 ± 0.11 µM | 6950 | 200 ± 36 nM | 540 ± 270 nM | 200 ± 18 nM
Cc1cc(C)cc(S(=O)(=O)c2c(C(=O)NCCCCCNS(=O)(=O)c3ccc(C#N)cc3)[nH]c3ccc(Cl)cc23)c1 [R5L5, 5-Chloro-3-((3,5-dimethylphenyl)sulfonyl)-N-(5-((4-cyanophenyl)sulfonamido)pentyl)-1H-indole-2-carboxamide] | 160 ± 16 nM | 77 ± 23 nM | > 204 µM | 11.9 ± 4.9 µM | 1.7 ± 0.52 µM | >6158 | 560 ± 130 nM | 340 ± 82 nM | 210 nM
Cc1cc(C)cc(S(=O)(=O)c2c(C(=O)NCCCNS(=O)(=O)c3ccc([N+](=O)[O-])cc3)[nH]c3ccc(Cl)cc23)c1 [R3L3, 5-Chloro-3-((3,5-dimethylphenyl)sulfonyl)-N-(3-((4-nitrophenyl)sulfonamido)propyl)-1H-indole-2-carboxamide] | 310 ± 50 nM | 350 ± 17 nM | 23 ± 0.6 µM | 4.92 ± 1.27 µM | 3.29 ± 0.066 µM | 464 | 730 ± 120 nM | 1770 ± 33 nM | 1030 ± 50 nM
Cc1cc(C)cc(S(=O)(=O)c2c(C(=O)NCCNS(=O)(=O)c3ccc(-c4ccccc4)cc3)[nH]c3ccc(Cl)cc23)c1 [R14L2, N-(2-([1,1′-Biphenyl]-4-sulfonamido)ethyl)-5-chloro-3-((3,5-dimethylphenyl)sulfonyl)-1H-indole-2-carboxamide] | 740 ± 97 nM | 950 ± 97 nM | 64.3 ± 11.2 µM | > 82.4 µM | > 31.2 µM | 317 | 1190 ± 260 nM | 2990 ± 680 nM | 1420 ± 370 nM
Cc1cc(C)cc(S(=O)(=O)c2c(C(=O)NCCNS(=O)(=O)c3ccc(Cl)cc3)[nH]c3ccc(Cl)cc23)c1 [R7L2, 5-Chloro-3-((3,5-dimethylphenyl)sulfonyl)-N-(2-((4-chlorophenyl)sulfonamido)ethyl)-1H-indole-2-carboxamide] | 360 ± 17 nM | 170 ± 41 nM | 175 ± 42.8 µM | 3.09 ± 0.5 µM | 2.66 ± 0.17 µM | 13,010 | 220 nM | 1040 ± 350 nM | 310 ± 160 nM
